Structures are written as SMILES.

The source of these data is patent publication US8235974B2, “Method for hair removal” (Ecole Polytechnique Federale de Lausanne (EPFL), priority 2001, dated 2012).

The subject of one data set is skin area. To be noted: applied 15 to 25 hours, pulsed red light, cited from earlier work.
A further data set relates to sheep. To be noted: light irradiation about 8 to 10 hours later, 600 to 700 nm; cited from earlier work.
Data set [1] concerns PpIX fluorescence in human forearm or leg skin areas (hair follicle vs epidermis). Kind of data set: Macroscopic PpIX fluorescence imaging of skin after topical photosensitizer precursor; ratio r hair follicle/hairless epidermis. In kind it is in vivo. On the procedure:
The photosensitizer precursors were formulated within standard excipients of the European Pharmacopoeia, namely unguentum leniens (UL) and unguentum hydrophilicum anionicum (UH); for some essays, the photosensitizer precursors were suspended either in pure glycerol (GLY) or in pure diethylene glycol monoethyl ether (DGME).
The formulations were administered topically on the forearm or the leg using the Tegaderm™ transparent dressing. This dressing enables the transport of water and oxygen according to the specifications of the manufacturer. This dressing was removed and the remaining formulation cleaned with pure ethanol just before the measurements performed at one single point in time. For the pharmacokinetic measurements, this dressing was removed after four hours. This removal of the Tegaderm™ during the remaining time course of the measurements induced negligible minimal alterations of the measurements due to the excellent transparency of this dressing at the wavelengths of interest.
A fluorescence imaging system illustrated by FIG. 9 was developed to assess the extent and level of PpIX production in “macroscopic” samples (parts of the human body such as: forearm, leg, back, etc.). As the goal is to assess the relative level of PpIX in the hair follicle of these samples, red light at 635 nm was chosen as PpIX fluorescence excitation wavelength. It is indeed well known that red light penetrates deeper in the cutaneous tissues than green and violet light, the later two wavelengths corresponding to larger PpIX absorption peaks (see the PpIX fluorescence excitation and emission spectra presented on the right side in FIG. 9).
As presented in the schematic diagram presented in FIG. 9, this fluorescence imaging system involves a modified 300 W D-light source 1 (Xe arc lamp from Storz, Tuttlingen, Germany) equipped with a red bandpass filter (635 nm, 20 nm FWHM; Chroma, USA). This fluorescence excitation light is coupled in a Storz 4 mm diameter light guide 2. The output of this light guide is imaged on the tissue sample 3 with a projection objective 4 (Nikon, Japan; AF Nikkor; 1:1.4 D/50 mm) to generate a homogenous spot of 2.5 cm in diameter with an irradiance of 2 mW/cm^2 at 635 nm. The distance between this projection objective 4 and the sample 3 is 25 cm. Therefore, the light beam illuminating the sample can be considered as parallel. The fluorescence is collected by another objective 5 (Fujinon, Japan; TV zoom lens; 1:1.2/12.5-75 mm; Type H6X12.5R-MD3) through a longpass filter 6 (Schott, Germany; RG665) and the image detected by a scientific CCD camera (752×582 pixels CF 8/1 Kappa, Gleichen, Germany) equipped 7 with an image intensifier (Proxifier BV 256-2FcZ-CH, Proxitronic, Bensheim, Germany). The images are captured by the 8-bits camera frame grabber and saved on the computer 8 with the “Kappa Imagebase-control” software. Image treatment is carried out using the IPLab imaging software. The spatial resolution of the complete setup has been measured with an USAF resolution target and the value we obtained in the sample plan is 3 lp/mm, the size of the image detected by the camera being 3×4 cm^2. A reference sample has been designed to enable a comparison of the relative fluorescence brightness between samples investigated at different times. This reference consists of a ruby disk (diameter: 12 mm; thickness: 1.02 mm; Type 8Sp3, Hans Stettler SA, Lyss, Switzerland) covered with a neutral density filter (T=2.27%) so that the signal obtained with this reference sample corresponds to the typical tissue fluorescence detected in our conditions.
The images were analyzed using the NIH image software. The method consisted in identifying the location of an area corresponding to: 1) one typical hair follicle and 2) epidermis presenting no skin appendages. The number of pixels involved in such an area was typically 100. […]

For data set [2], the system named is skin area (hairs, follicles, epidermis). Put plainly: Irradiation of treated skin areas at 635 nm: hair removal and skin reaction. As to conditions: pure, applied 195 minutes; irradiated 200 minutes later, 30 J/cm^2 at 65 mW/cm^2 (FIG. 7A). It is filed as in vivo, human.
Experimental: The irradiation step of the skin areas treated by means of the various photosensitizer precursor compositions described above was conducted as follows: The irradiation of the skin was performed at 635 nm with an argon ion (Spectra-Physics, model 2020) pumped dye laser (Spectra-Physics, model 375B). The light was coupled in a frontal FD1 light distributor from Medlight SA (Ecublens, Switzerland). This distributor generated a uniform 2 cm in diameter spot. The typical irradiances and light doses were 60 to 130 mW/cm^2 and 30 to 130 J/cm^2, respectively. The irradiance was checked before and after all treatments. The light power delivered by the light distributor was determined using a power meter from Spectra-Physics (Model 407A, Mountain view, Calif., USA).
Thereafter, the skin was cleaned as indicated above. 15 minutes later, the skin area was irradiated with a light dose of 127 J/cm^2 at an irradiance of 127 mW/cm^2.
A first area was submitted to light irradiation after a waiting time equal to 200 minutes with a light dose of 61 J/cm^2 at an irradiance of 42.4 mW/cm^2. […] A second area was submitted to light irradiation 30 minutes after the end of drug administration. The light dose was 130 J/cm^2 at an irradiance of 56.6 mW/cm^2.
Thereafter, the skin was cleaned and irradiated 200 minutes later with a light dose of 30 J/cm^2 at an irradiance of 65 mW/cm^2.
Where [3] appears, read: three hours administration, 20% in DGME.
[4] abbreviates: three hours administration, 20% in glycerol.

For the compound `Cl.NCC(=O)CCC(=O)O` [ALA, 5-amino-levulinic acid hydrochloride], in the data set with skin area (treatment repeated about 4 to 8 times), the hair removal entry is on record as “effective”. In the data set on skin area, the “duration of sunburn like side effects after an irradiation” value is given as 2 to 20 days. Besides, the “side effects in treated skin areas of test animals” value in the data set on sheep is “edema, discoloration and crusting”. Further, the wool growth result in the data set on sheep is given as “significantly reduced”. Moreover, the “ratio r (hair follicle/epidermis fluorescence)” value amounted to 2.21 in data set [1] (setting [3]) and 1.62 in data set [1] (setting [4]). In addition, in data set [1] (three hours after administration, in unguentum hydrophilicum), the “ratio r (fluorescence brightness hair follicle area / hairless epidermis area)” value was 1.46.
`CCOCCOCCOC(=O)CCC(=O)CN` [ALA-DGME, diethylene glycol monoethyl ether 5-amino-levulinate]: the “skin reaction one day after irradiation” value in data set [2] was “a clear reaction selectivity between the skin areas around follicles and the epidermis in bulk”. Further, the “ratio r (hair follicle/epidermis fluorescence)” value in data set [1] (pure, lower leg, 3 hours, normal skin temperature of 31° C.) is on record as 3.47; in data set [1] (pure, lower leg, three hours at 41° C. (electric blanket)), 4.72; in data set [1] (setting [3]) it was 3.24; in data set [1] (setting [4]) it was 2.51.
Consider `COC(=O)CCC(=O)CN` [m-ALA, methyl ester of ALA], for which, in data set [1] (20% in Unguentum Leniens, one volunteer, 0 to 1380 minutes (FIG. 10)), the “kinetics of the hair follicle/epidermis fluorescence ratio” value was “decreases rapidly during the first hours and tends to unity for longer times”.
